From patent publication US20110152373A1, “HAIR GROWTH PROMOTING AGENT CONTAINING 15,15-DIFLUOROPROSTAGLANDIN F2ALPHA DERIVATIVE AS ACTIVE INGREDIENT” (SANTAN PHARMACEUTICAL CO., LTD., priority 2008, published 2011)

Tested on: eyelashes of patients with open-angle glaucoma or ocular hypertension
Assay: European Phase III clinical trial: eyelash findings from photographs compared with base line
Assay type: in vivo, human
Settings: for Color of eyelashes was changed (number of patients with finding) / Eyelashes were grown (number of patients with finding) / Eyelashes were made thicker (number of patients with finding): eye drop (0.0015% tafluprost or 0.005% latanoprost) once a day, one drop, total 264 patients per group
Method: A European Phase III clinical trial for tafluprost, one of the 15,15-difluoroprostaglandin F2α derivatives, with patients with open-angle glaucoma or ocular hypertension was performed by the following test method, and tafluprost was evaluated for findings associated with the eyelashes and an peripheral area thereof, that is, the evaluation was performed as to whether eyelashes were grown, eyelashes were made thicker, and the color of eyelashes was changed by the following evaluation method.
Patients with open-angle glaucoma or ocular hypertension were randomly allocated to two groups (a 0.0015% tafluprost eye drop group and a 0.005% latanoprost eye drop group) and received the eye drop once a day at a dose of one drop for 24 months in a double-blind manner after a washout period for 5 days to 4 weeks or more according to need prior to the glaucoma medication.
The eyelashes and eyelids were photographed at 0 (base line), 3, 6, 12, 18, and 24 months, and the photographs were compared with the base line, and the presence or absence of findings (eyelashes were grown, eyelashes were made thicker, and the color of eyelashes was changed) was confirmed.

| SMILES | Effect of promoting the growth of hair (eyelashes), in words (0.0015% eye drop once a day for 24 months, conclusion from Table 1) | Eyelash actions compared with those of latanoprost, in words (0.0015% tafluprost eye drop vs 0.005% latanoprost eye drop, 24 months) | Color of eyelashes was changed (number of patients with finding) (24 months) [patients] | Eyelashes were grown (number of patients with finding) (24 months) [patients] | Eyelashes were made thicker (number of patients with finding) (24 months) [patients] |
| --- | --- | --- | --- | --- | --- |
| CC(C)OC(=O)CCC/C=C\C[C@@H]1[C@@H](/C=C/C(F)(F)COc2ccccc2)[C@H](O)C[C@@H]1O [Tafluprost, tafluprost] | has actions of growing eyelashes, making eyelashes thicker, and changing the color thereof | significant effects as compared with those of latanoprost | 13 | 17 | 5 |
| CC(C)OC(=O)CCC/C=C\C[C@@H]1[C@@H](CC[C@@H](O)CCc2ccccc2)[C@H](O)C[C@@H]1O [Latanoprost, latanoprost, reference compound] | – | – | 10 | 11 | 4 |
